IC50 data for 11 compounds are collected here from US20240199587A1, “HETEROCYCLIC COMPOUNDS” (Hoffmann-La Roche Inc., priority 2021, published 2024).

For orientation: IC50 means the concentration needed to halve the response being measured.

The target of this test is T1, MAGL (Homo sapiens, UniProt Q99685).
T1 sequence (Q99685 1-303): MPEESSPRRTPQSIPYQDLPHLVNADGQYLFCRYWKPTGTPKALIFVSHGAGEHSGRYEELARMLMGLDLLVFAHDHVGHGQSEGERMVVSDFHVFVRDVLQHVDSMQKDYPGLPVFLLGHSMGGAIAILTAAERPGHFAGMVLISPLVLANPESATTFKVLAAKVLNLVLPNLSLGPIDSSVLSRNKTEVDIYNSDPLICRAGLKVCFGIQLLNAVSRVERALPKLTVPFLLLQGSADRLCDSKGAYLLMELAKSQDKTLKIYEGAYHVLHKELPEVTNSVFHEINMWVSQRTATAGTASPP
In words: 2-AG assay (MAGL inhibitory activity, hydrolysis of 2-arachidonoylglycerol to arachidonic acid followed by mass spectrometry). The class given is biochemical. The settings on record: 8 μM 2-arachidonoylglycerol, 15 min pre-incubation, 30 min incubation at RT, RapidFire MS readout. The method in brief: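 Human MAGL ([…] final) pre-incubated 15 min at RT with compound in 50 mM TRIS, 1 mM EDTA, 0.01% Tween-20, 2.5% DMSO; 8 μM 2-AG then added for 30 min at RT. Acetonitrile quench with d8-arachidonic acid; arachidonic acid measured by RapidFire SPE–MS/MS, activity from arachidonic acid/d8 ratio.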
Compound `CC(C)c1ccc(N(C)c2ccc(C3CN(C(=O)N4CC5(CC(c6ccc(C(F)(F)F)nc6)C5)C4)C3)cn2)cc1` [Example 534, [3-[6-(4-isopropyl-N-methyl-anilino)-3-pyridyl]azetidin-1-yl]-[6-[6-(trifluoromethyl)-3-pyridyl]-2-azaspiro[3.3]heptan-2-yl]methanone] registered an IC50 of 1760 nM.
Under `O=C(N1CC2(CCC(Cc3ccc(C(F)(F)F)nc3)C2)C1)N1CC2(CC(c3ccc(C(F)(F)F)nc3)C2)C1` (centres unmarked) [Example 535, [6-[6-(trifluoromethyl)-3-pyridyl]-2-azaspiro[3.3]heptan-2-yl]-[6-[[6-(trifluoromethyl)-3-pyridyl]methyl]-2-azaspiro[3.4]octan-2-yl]methanone] stands 170 nM.
The compound `N#Cc1cc(CC2CC3(C2)CN(C(=O)N2CC4(CC(c5ccc(C(F)(F)F)nc5)C4)C2)C3)ccc1C(F)(F)F` [Example 536, 2-(trifluoromethyl)-5-[[2-[6-[6-(trifluoromethyl)-3-pyridyl]-2-azaspiro[3.3]heptane-2-carbonyl]-2-azaspiro[3.3]heptan-6-yl]methyl]benzonitrile] had a 50% inhibitory concentration (IC50) of 13.9 nM.
For `O=C(N1CC(c2ccc(-c3ccc(Cl)cc3Cl)cn2)C1)N1CC2(CC(c3ccc(C(F)(F)F)nc3)C2)C1` [Example 537, [3-[5-(2,4-dichlorophenyl)-2-pyridyl]azetidin-1-yl]-[6-[6-(trifluoromethyl)-3-pyridyl]-2-azaspiro[3.3]heptan-2-yl]methanone] the value was 80.3 nM; for `CS(=O)(=O)c1ccc(-c2ccc(C3CN(C(=O)N4CC5(CC(c6ccc(C(F)(F)F)nc6)C5)C4)C3)cn2)c(Cl)c1` [Example 538, [3-[6-(2-chloro-4-methylsulfonyl-phenyl)-3-pyridyl]azetidin-1-yl]-[6-[6-(trifluoromethyl)-3-pyridyl]-2-azaspiro[3.3]heptan-2-yl]methanone], 381 nM; for `O=C(N1CC(c2ccc(-c3ccc(Cl)cc3F)cn2)C1)N1CC2(CC(c3ccc(C(F)(F)F)nc3)C2)C1` [Example 539, [3-[5-(4-chloro-2-fluoro-phenyl)-2-pyridyl]azetidin-1-yl]-[6-[6-(trifluoromethyl)-3-pyridyl]-2-azaspiro[3.3]heptan-2-yl]methanone], 176 nM.
Under `CC(C)(C)c1nc(-c2ccc(C(=O)N3CC4(CC(n5cc(C#N)cn5)C4)C3)cc2)no1` [compound 21, 1-[2-[4-(5-tert-butyl-1,2,4-oxadiazol-3-yl)benzoyl]-2-azaspiro[3.3]heptan-6-yl]pyrazole-4-carbonitrile] stands 3370 nM; under `O=C(N1CC2(CC(n3cnc(C4CC4)n3)C2)C1)C12CCC(COCC3(C(F)(F)F)CC3)(CC1)C2` [compound 161, [6-(3-cyclopropyl-1,2,4-triazol-1-yl)-2-azaspiro[3.3]heptan-2-yl]-[4-[[1-(trifluoromethyl)cyclopropyl]methoxymethyl]norbornan-1-yl]methanone], 184 nM.
For `O=C(C1CC(OCC2(C(F)(F)F)CC2)C1)N1CC2(CC(n3cnc(C4CC4)n3)C2)C1` (centres unmarked) [compound 176, [6-(3-cyclopropyl-1,2,4-triazol-1-yl)-2-azaspiro[3.3]heptan-2-yl]-[3-[[1-(trifluoromethyl)cyclopropyl]methoxy]cyclobutyl]methanone] the value was 1440 nM; for “N-[2-[6-[3-(1- hydroxycyclopropyl)- 1,2,4-triazol-1-yl]-2- azaspiro[3.3]heptane-2- carbonyl]-2- azaspiro[3.3]heptan-6- yl]-3- (trifluoromethyl) benzenesulfonamide [Example 401]”, 9.45 nM; for “[6-[3-(1- hydroxycyclopropyl)- 1,2,4-triazol-1-yl]-2- azaspiro[3.3]heptan-2- yl]-[6-[4- (trifluoromethyl)-2- pyridyl]methyl]-2- azaspiro[3.3]heptan-2- yl]methanone [Example 400]”, 4.65 nM.
